In ChEMBL document CHEMBL4052781, “Discovery and structure-activity relationship of auriculatone: A potent hepatoprotective agent against acetaminophen-induced liver injury” (Bioorg Med Chem Lett, 2017):
Calls of active or inactive are those of the source. The calls are words filed in the database; no cut-off is given here.

What was measured:
L02 [1] = test: Hepatoprotective activity against APAP-induced cell injury in human HL-7702 cells assessed as increase in survival rate at 1 uM pre-incubated for 24 hrs before APAP addition and measured 6 hrs post APAP challenge by MTT assay; type: functional, cell-based
L02 [2] = test: Hepatoprotective activity against APAP-induced cell injury in human HL-7702 cells assessed as increase in survival rate at 0.1 uM pre-incubated for 24 hrs before APAP addition and measured 6 hrs post APAP challenge by MTT assay; type: functional, cell-based
L02 [3] = test: Hepatoprotective activity against APAP-induced cell injury in human HL-7702 cells assessed as survival rate at 10 uM pre-incubated for 24 hrs before APAP addition and measured 6 hrs post APAP challenge by MTT assay (reference value: 59.13%); type: functional; details: read-out: Survival
L02 [4] = test: Hepatoprotective activity against APAP-induced cell injury in human HL-7702 cells assessed as increase in survival rate at 10 uM pre-incubated for 24 hrs before APAP addition and measured 6 hrs post APAP challenge by MTT assay; type: functional, cell-based
L02 [5] = test: Hepatoprotective activity against APAP-induced cell injury in human HL-7702 cells assessed as survival rate at 10 uM pre-incubated for 24 hrs before APAP addition and measured 6 hrs post APAP challenge by MTT assay (reference value: 60.49 +/- 0.28%); type: functional; details: read-out: Survival
L02 [6] = test: Effect on APAP-induced depletion of GSH levels in human HL-7702 cells assessed as GSH level at 10 uM by colorimetric method (reference value: 59.68 +/- 1.16 au); type: functional
L02 [7] = test: Hepatoprotective activity against APAP-induced cell injury in human HL-7702 cells assessed as survival rate at 5 uM pre-incubated for 24 hrs before APAP addition and measured 6 hrs post APAP challenge by MTT assay (reference value: 60.49 +/- 0.28%); type: functional; details: read-out: Survival
CYP3A4 = CYP3A4 (Homo sapiens, UniProt P08684); test: Inhibition of CYP3A4 in human HL-7702 cells assessed as assessed as remaining enzyme activity by measuring reduction in metabolic conversion of nifedipine to dehydronifedipine at 10 uM by LC-MS/MS method; type: ADME, cell-based; details: probe nifedipine, read-out: Activity
Cytochrome P450 3A4 = Cytochrome P450 3A4 (Homo sapiens, UniProt P08684); test: Inhibition of CYP3A4 in human HL-7702 cells assessed as reduction in metabolic conversion of nifedipine to dehydronifedipine by LC-MS/MS method; type: ADME, cell-based
L02 [8] = test: Hepatoprotective activity against APAP-induced cell injury in human HL-7702 cells assessed as survival rate at 1.25 uM pre-incubated for 24 hrs before APAP addition and measured 6 hrs post APAP challenge by MTT assay (reference value: 60.49 +/- 0.28%); type: functional; details: read-out: Survival
L02 [9] = test: Hepatoprotective activity against APAP-induced cell injury in human HL-7702 cells assessed as survival rate at 0.625 uM pre-incubated for 24 hrs before APAP addition and measured 6 hrs post APAP challenge by MTT assay (reference value: 60.49 +/- 0.28%); type: functional; details: read-out: Survival
L02 [10] = test: Effect on APAP-induced depletion of GSH levels in human HL-7702 cells assessed as GSH level at 1 uM by colorimetric method (reference value: 59.68 +/- 1.16 au); type: functional
L02 [11] = test: Effect on APAP-induced depletion of GSH levels in human HL-7702 cells assessed as GSH level at 0.1 uM by colorimetric method (reference value: 59.68 +/- 1.16 au); type: functional
L02 [12] = test: Hepatoprotective activity against APAP-induced cell injury in human HL-7702 cells assessed as survival rate at 2.5 uM pre-incubated for 24 hrs before APAP addition and measured 6 hrs post APAP challenge by MTT assay (reference value: 60.49 +/- 0.28%); type: functional; details: read-out: Survival

Chain of CYP3A4 (P08684 whole entry): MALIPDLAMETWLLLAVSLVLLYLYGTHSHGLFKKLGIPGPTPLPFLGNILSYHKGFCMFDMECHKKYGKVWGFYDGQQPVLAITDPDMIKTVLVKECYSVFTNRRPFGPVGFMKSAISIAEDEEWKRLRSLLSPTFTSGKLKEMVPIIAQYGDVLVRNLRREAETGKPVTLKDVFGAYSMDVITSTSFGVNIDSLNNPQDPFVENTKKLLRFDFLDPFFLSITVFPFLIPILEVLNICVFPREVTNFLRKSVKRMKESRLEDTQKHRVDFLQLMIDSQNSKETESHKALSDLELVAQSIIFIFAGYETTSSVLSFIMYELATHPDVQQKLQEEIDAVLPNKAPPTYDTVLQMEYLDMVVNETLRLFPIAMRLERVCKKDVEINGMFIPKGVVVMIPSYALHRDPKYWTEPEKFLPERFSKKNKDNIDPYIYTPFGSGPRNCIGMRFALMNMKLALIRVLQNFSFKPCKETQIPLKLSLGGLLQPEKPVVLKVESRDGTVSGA
Chain of Cytochrome P450 3A4 (P08684 whole entry): as above

Compound | Activity (L02 [2]) | viability at 10 µM (L02 [3]) [%] | Activity (L02 [4]) | further results
CC1(C)CC[C@H]2C(=O)C[C@]3(C)C(=CC[C@@H]4[C@@]5(C)CCC(=O)C(C)(C)[C@@H]5CC[C@]43C)[C@@H]2C1 | inactive | 71.2 | Active | Activity (L02 [1]): Active
CC1(C)CC[C@H]2[C@@H](O)C[C@]3(C)C(=CC[C@@H]4[C@@]5(C)CC[C@H](O)C(C)(C)[C@@H]5CC[C@]43C)[C@@H]2C1 | inactive | 62.9 | Active | 
CC1(C)CC[C@]2(C(=O)O)CC[C@]3(C)C(=CC(=O)[C@@H]4[C@@]5(C)CC[C@H](O)C(C)(C)[C@@H]5CC[C@]43C)[C@@H]2C1 |  |  | Active | 
CC(=O)N[C@@H](CS)C(=O)O [ACETYLCYSTEINE] |  |  | Active | viability at 10 µM (L02 [5]): 82.3%; Activity (L02 [6]): 102.49 a.u.
CC1(C)CC[C@]2(C(=O)O)CC[C@]3(C)C(=CC[C@@H]4[C@@]5(C)CCC(=O)C(C)(C)[C@@H]5CC[C@]43C)[C@@H]2C1 |  |  | Active | 
CC1(C)CC[C@]2(C(=O)O)[C@H](O)C[C@]3(C)C(=CC[C@@H]4[C@@]5(C)CC[C@H](O)C(C)(C)[C@@H]5CC[C@]43C)[C@@H]2C1 |  |  | Active | 
CC(=O)O[C@H]1CC[C@]2(C)[C@H]3CC=C4[C@@H]5CC(C)(C)CC[C@H]5C(=O)C[C@@]4(C)[C@]3(C)CC[C@H]2C1(C)C | inactive | 67.1 | Active | 
CC1(C)CC[C@H]2CC[C@]3(C)C(=CC[C@@H]4[C@@]5(C)CC[C@H](O)C(C)(C)[C@@H]5CC[C@]43C)[C@@H]2C1 | inactive | 71.6 | Active | Activity (L02 [1]): Active
CC1(C)CC[C@H]2C(=O)C[C@]3(C)[C@@]4(O[C@@H]4C[C@@H]4[C@@]5(C)CC[C@H](O)C(C)(C)[C@@H]5CC[C@]43C)[C@@H]2C1 | inactive | 65.7 | Active | 
CC1(C)CC[C@H]2C(=O)C[C@]3(C)C(=CC[C@@H]4[C@@]5(C)CC[C@H](O)C(C)(C)[C@@H]5CC[C@]43C)[C@@H]2C1 | inactive | 78.3 to 80 |  | viability at 5 µM (L02 [7]): 76%; activity at 10 µM (CYP3A4): 66%; Activity (L02 [1]): Active; Activity (Cytochrome P450 3A4): Dose-dependent effect; viability at 1.25 µM (L02 [8]): 68.6%; viability at 0.625 µM (L02 [9]): 66.8%; Activity (L02 [10]): 55.62 a.u.; Activity (L02 [11]): 55.93 a.u.; viability at 10 µM (L02 [5]): 80.1%; Activity (L02 [6]): 54.37 a.u.; viability at 2.5 µM (L02 [12]): 74.5%
CC1(C)CC[C@@]23CC[C@@]4(C)[C@]5(C)CC[C@H]6C(C)(C)[C@@H](O)CC[C@]6(C)C5=CC(=O)[C@]4(OC2=O)[C@@H]3C1 |  |  | Active | 
CC1(C)CC[C@]2(C(=O)O)CC[C@]3(C)C(=CC=C4[C@@]5(C)CC[C@H](O)C(C)(C)[C@@H]5CC[C@]43C)[C@@H]2C1 |  |  | Active | 
CC1(C)CC[C@]2(C(=O)O)CC[C@]3(C)C(=C2C1)C=C[C@@H]1[C@@]2(C)CC[C@H](O)C(C)(C)[C@@H]2CC[C@]13C |  |  | Active | 
CC1(C)CC[C@@H]2C(=O)C[C@]3(C)C(=CC[C@@H]4[C@@]5(C)CC[C@H](O)C(C)(C)[C@@H]5CC[C@]43C)[C@@H]2C1 |  | 76 to 80 |  | 
CC1(C)CC[C@]2(CO)CC[C@]3(C)C(=CC[C@@H]4[C@@]5(C)CC[C@H](O)C(C)(C)[C@@H]5CC[C@]43C)[C@@H]2C1 |  |  | Active | 
CC1(C)CC[C@H]2[C@H](O)C[C@]3(C)C(=CC[C@@H]4[C@@]5(C)CC[C@H](O)C(C)(C)[C@@H]5CC[C@]43C)[C@@H]2C1 | inactive | 65.5 | Active | 
CC1(C)CC[C@]2(C(=O)O)CC[C@]3(C)C(=CC[C@@H]4[C@@]5(C)CC[C@H](O)C(C)(C)[C@@H]5CC[C@]43C)[C@@H]2C1 [OLEANOLIC_ACID] |  | 68.5 |  | 
